Assay results as given in ChEMBL document CHEMBL1201862, “PubChem BioAssay data set” (2004).
The source made the active and inactive calls.

What was measured:
[1] = biological target: Large T antigen (Simian virus 40, UniProt P03070); format: functional, Betapolyomavirus macacae;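 note: Confirmatory-stage PubChem screen for compounds that inhibit SV40 T antigen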
[2] = biological target: T1, Replicative DNA helicase DnaB (Mycobacterium tuberculosis, UniProt P9WMR3); experiment: DnaB intein splicing inhibitors, dose response, biochemical, cell-free fluorescence (AID 449749); format: functional
T1 sequence (P9WMR3 whole entry): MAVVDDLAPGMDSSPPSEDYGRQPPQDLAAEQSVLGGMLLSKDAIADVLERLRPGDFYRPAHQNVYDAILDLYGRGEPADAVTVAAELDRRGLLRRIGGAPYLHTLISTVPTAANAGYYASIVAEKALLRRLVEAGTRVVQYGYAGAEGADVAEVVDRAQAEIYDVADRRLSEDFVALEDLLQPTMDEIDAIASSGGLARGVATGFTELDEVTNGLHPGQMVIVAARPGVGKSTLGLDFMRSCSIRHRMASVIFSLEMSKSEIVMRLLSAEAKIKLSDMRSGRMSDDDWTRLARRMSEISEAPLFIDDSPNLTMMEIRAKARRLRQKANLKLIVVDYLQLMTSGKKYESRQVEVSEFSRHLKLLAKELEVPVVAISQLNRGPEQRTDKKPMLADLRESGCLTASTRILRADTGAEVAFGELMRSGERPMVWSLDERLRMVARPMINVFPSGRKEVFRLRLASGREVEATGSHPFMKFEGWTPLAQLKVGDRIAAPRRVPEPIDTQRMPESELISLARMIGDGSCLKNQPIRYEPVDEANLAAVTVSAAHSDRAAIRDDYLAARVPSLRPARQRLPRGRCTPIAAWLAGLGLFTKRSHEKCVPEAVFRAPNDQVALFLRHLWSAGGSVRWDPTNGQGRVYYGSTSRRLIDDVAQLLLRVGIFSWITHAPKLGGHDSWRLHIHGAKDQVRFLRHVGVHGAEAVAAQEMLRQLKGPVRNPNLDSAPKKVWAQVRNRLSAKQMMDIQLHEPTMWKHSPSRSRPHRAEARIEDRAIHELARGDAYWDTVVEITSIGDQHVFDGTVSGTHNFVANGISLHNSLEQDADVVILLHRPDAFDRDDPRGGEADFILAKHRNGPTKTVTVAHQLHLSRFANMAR

[3] = biological target: T2, Protein RecA (Mycobacterium tuberculosis, UniProt P9WHJ3); experiment: Fluorescence Cell-Free Homogeneous Dose Retest to Identify Inhibitors of RecA-Intein Splicing Activity. [Related pubchem assays (depositor defined):AID2097, AID2223, AID489010, AID492950]; format: functional
T2 sequence (P9WHJ3 whole entry): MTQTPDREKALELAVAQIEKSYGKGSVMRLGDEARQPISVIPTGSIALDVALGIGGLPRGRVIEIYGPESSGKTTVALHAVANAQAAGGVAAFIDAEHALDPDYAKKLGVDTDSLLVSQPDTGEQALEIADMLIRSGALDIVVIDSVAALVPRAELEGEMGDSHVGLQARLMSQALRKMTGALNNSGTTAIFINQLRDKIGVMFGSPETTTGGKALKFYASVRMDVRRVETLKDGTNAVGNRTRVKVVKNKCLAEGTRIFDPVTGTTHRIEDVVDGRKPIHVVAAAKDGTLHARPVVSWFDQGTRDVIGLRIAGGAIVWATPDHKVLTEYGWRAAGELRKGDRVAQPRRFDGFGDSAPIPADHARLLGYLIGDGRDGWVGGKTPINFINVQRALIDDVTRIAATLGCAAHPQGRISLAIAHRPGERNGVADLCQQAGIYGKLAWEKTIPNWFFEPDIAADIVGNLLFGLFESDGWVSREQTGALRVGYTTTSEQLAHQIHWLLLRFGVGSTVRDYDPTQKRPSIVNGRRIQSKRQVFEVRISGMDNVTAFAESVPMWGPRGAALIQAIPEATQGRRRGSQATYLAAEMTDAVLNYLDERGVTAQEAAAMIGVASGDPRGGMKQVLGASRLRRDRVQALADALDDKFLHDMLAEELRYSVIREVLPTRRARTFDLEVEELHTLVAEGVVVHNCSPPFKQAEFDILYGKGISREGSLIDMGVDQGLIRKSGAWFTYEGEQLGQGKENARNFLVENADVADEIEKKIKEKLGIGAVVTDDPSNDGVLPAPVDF

[4] = biological target: Genome polyprotein (dengue virus type 2, UniProt P29990); experiment: Dengue-2 NS5 methyltransferase inhibitors, primary screen, biochemical, confirmation dose response (AID 588689); format: functional
[5] = biological target: FAD-linked sulfhydryl oxidase ALR (Homo sapiens, UniProt P55789); experiment: inhibitors of human ALR sulfhydryl oxidase, dose response, biochemical, H2O2 detection, luminescence, cherry-pick (AID 493248)
[6] = cells; format: functional
[7] = biological target: T3, Ubiquitin-conjugating enzyme E2 N (Homo sapiens, UniProt P61088); format: functional;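 note: Dose-response confirmation in a TR-FRET assay detecting UBC13-driven polyubiquitin chain formation, inhibition measured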
T3 sequence (P61088 whole entry): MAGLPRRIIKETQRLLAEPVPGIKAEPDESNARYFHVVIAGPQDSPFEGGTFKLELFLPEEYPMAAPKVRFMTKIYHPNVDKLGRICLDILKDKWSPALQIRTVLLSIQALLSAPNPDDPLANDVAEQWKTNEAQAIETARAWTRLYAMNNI

[8] = Shn3 3'UTR reporter inhibitors, dose response, cell-based, Clone20 osteoblasts, firefly luciferase, cherry-picked (AID 624132); format: functional;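 note: firefly luciferase luminescence from reporter carrying the Shn3 3'UTR in osteoblasts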
[9] = HepG2 cell cytotoxicity, dose response, cytotoxicity control for Shn3 inhibitor project, CellTiter-Glo, cherry-picked (AID 624134); format: functional, cell-based
[10] = control 3'UTR Renilla luciferase suppression, dose response, counter-screen for Shn3 inhibitor project, cell-based, Clone20-Shn3RL, cherry-picked (AID 624133); format: functional
[11] = test system: INS1; experiment: beta cell apoptosis inhibitors, cytokine rescue, dose response, luminescence, retest (AID 449756); format: functional, cell-based; conditions: Rattus norvegicus;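 note: cell death triggered by IL-1 beta plus TNF-alpha plus IFN-gamma mixture; protective hits raise ATP signal compared with cytokine alone wells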
[12] = biological target: T4, Polyadenylate-binding protein 1 (Homo sapiens, UniProt P11940); experiment: PABP1 MLLE–PAM2 interaction inhibitors, dose response, miRNA deadenylation inhibitor project, biochemical, fluorescence polarization, Cy5-PAM2 peptide, secondary (AID 602260); format: functional; conditions: read-out: IC50_Mean
[13] = biological target: T4, Polyadenylate-binding protein 1; experiment: PABP1 MLLE–PAM2 binding inhibitor potency, dose response, biochemical, fluorescence polarization, FITC-PAM2 peptide (AID 602259); format: functional; conditions: read-out: IC50_Mean
[14] = inhibitors of intracellular T. cruzi replication, confirmation, NIH3T3 host cells, beta-gal luminescence (AID 2044); format: functional, cell-based;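 note: intracellular parasites grown in NIH/3T3 mouse fibroblasts as host cells; luminescent beta-galactosidase reporter signal from transgenic T. cruzi replicating inside host cells; inhibitors lower the luminescence signal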
[15] = cytotoxicity toward NIH3T3 fibroblasts, dose response, counter-screen, cell-based, ATP luminescence, mouse fibroblasts (AID 2010); format: functional;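 note: cells exposed to compound for about 90 hours before reading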
[16] = test system: Streptococcus sp. 'group A'; experiment: growth inhibition of control SK(-) GAS strain, dose response, counter-screen for streptokinase expression inhibitor project, luminescence, kanamycin, BacTiterGlo, confirmation (AID 1900); format: functional, organism-based
[17] = biological target: T5, Streptokinase A (Streptococcus pyogenes serotype M1, UniProt P10520); experiment: S. pyogenes streptokinase expression inhibitors, potency, dose response, plasminogen activation absorbance, OD405 (AID 1914); format: functional, Streptococcus pyogenes M1 GAS;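 note: secreted streptokinase activity via plasminogen activation per viability signal from cell pellet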
T5 sequence (P10520 whole entry): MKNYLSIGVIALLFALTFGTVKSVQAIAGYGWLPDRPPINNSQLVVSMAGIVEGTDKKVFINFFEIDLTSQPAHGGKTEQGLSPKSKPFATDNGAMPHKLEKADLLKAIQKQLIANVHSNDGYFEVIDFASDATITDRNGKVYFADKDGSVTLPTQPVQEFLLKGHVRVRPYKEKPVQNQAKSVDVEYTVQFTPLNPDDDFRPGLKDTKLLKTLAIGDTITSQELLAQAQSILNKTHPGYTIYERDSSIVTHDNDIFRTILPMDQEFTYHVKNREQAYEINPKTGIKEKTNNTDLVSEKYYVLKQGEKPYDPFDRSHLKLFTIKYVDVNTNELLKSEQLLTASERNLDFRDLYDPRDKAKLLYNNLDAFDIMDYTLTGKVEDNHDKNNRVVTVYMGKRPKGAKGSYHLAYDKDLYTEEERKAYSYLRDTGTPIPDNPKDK

[18] = test system: Streptococcus; experiment: Group A Streptococcus viability loss, dose response, counter-screen for streptokinase expression inhibitor project, luminescence, BacTiterGlo (AID 1915); format: functional, organism-based;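 note: potency for reduction of bacterial viability or growth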
[19] = NIH-3T3 fibroblast cytotoxicity, dose response, cytotoxicity control, cell-based, fluorescence, Alamar Blue, secondary assay (AID 2327); format: functional;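 note: NIH-3T3 mouse fibroblasts cultured with fluconazole at 8 µg/mL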
[20] = biological target: T6, Rac GTPase-activating protein 1 (Homo sapiens, UniProt Q9H0H5); experiment: MgcRacGAP GTPase-activating activity inhibitors, confirmation, biochemical, ADP Hunter fluorescence, primary and confirmatory (AID 624330); format: functional
T6 sequence (Q9H0H5 whole entry): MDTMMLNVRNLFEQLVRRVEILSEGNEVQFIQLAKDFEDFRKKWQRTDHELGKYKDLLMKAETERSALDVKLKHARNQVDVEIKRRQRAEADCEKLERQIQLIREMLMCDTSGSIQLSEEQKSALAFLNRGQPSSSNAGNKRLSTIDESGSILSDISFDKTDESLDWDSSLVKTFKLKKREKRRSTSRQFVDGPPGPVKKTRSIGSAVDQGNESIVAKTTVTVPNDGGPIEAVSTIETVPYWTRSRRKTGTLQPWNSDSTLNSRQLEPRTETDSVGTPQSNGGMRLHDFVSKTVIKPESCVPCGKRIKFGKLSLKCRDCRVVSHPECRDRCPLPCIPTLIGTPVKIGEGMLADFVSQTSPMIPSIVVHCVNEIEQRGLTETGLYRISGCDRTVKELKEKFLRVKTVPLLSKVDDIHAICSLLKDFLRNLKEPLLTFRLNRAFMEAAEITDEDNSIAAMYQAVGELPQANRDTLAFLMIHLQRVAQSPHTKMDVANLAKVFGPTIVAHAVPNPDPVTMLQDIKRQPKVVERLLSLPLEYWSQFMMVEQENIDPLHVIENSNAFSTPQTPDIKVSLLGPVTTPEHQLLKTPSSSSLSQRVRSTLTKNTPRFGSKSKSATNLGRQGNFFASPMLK

[21] = inhibitors of HIV Env-driven cell fusion, dose response, cherry-pick (AID 652057); format: functional, cell-based

Genome polyprotein, sequence (P29990 2492-3391 limits assumed): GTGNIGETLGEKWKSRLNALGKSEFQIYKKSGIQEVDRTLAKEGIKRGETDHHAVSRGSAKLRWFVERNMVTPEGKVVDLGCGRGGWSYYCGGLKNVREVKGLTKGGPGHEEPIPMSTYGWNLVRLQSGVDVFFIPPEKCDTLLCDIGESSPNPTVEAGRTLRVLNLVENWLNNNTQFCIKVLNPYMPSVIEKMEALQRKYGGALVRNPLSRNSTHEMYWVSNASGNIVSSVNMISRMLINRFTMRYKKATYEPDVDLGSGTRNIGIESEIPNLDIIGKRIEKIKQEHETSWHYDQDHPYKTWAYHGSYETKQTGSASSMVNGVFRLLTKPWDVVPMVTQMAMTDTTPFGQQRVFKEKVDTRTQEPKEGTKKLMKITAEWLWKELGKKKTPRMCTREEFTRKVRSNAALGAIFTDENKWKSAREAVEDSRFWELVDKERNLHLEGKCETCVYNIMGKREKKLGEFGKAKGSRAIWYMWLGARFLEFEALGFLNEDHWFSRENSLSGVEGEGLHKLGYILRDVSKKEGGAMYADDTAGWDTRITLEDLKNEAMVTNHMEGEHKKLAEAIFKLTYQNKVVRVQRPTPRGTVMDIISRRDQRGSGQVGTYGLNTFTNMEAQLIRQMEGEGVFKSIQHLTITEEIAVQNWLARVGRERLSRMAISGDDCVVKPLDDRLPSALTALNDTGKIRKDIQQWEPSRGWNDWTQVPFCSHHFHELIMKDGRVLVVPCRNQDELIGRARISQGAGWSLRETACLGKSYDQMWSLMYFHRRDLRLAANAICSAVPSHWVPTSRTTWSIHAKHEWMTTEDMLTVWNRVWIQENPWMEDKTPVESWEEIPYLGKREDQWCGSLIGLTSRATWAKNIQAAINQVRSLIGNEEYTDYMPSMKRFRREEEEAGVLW
Large T antigen, sequence (P03070 whole entry): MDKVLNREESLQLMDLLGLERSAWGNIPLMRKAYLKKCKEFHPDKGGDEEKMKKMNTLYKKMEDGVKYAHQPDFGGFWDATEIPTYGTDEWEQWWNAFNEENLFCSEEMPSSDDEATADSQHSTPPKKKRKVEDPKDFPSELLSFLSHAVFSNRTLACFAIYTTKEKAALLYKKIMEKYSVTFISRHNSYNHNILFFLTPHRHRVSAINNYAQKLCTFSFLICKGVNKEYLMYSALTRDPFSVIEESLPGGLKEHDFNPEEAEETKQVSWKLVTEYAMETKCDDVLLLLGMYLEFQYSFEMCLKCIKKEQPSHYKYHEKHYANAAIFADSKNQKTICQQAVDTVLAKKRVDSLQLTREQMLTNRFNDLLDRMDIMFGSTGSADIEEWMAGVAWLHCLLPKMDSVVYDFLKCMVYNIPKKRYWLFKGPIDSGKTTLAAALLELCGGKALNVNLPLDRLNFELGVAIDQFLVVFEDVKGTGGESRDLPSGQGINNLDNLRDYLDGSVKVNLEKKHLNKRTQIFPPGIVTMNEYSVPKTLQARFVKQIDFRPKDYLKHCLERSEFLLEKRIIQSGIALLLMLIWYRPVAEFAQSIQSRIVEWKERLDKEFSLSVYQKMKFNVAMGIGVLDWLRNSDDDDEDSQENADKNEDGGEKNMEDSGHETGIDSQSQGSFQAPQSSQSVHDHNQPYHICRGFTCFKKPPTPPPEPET
FAD-linked sulfhydryl oxidase ALR, sequence (P55789 whole entry): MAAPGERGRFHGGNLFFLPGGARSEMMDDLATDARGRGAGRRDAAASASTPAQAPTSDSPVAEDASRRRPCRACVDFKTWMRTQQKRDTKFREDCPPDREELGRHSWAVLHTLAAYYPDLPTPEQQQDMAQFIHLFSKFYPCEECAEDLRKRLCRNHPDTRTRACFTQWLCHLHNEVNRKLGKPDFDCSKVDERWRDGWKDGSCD
T4 sequence (P11940 whole entry): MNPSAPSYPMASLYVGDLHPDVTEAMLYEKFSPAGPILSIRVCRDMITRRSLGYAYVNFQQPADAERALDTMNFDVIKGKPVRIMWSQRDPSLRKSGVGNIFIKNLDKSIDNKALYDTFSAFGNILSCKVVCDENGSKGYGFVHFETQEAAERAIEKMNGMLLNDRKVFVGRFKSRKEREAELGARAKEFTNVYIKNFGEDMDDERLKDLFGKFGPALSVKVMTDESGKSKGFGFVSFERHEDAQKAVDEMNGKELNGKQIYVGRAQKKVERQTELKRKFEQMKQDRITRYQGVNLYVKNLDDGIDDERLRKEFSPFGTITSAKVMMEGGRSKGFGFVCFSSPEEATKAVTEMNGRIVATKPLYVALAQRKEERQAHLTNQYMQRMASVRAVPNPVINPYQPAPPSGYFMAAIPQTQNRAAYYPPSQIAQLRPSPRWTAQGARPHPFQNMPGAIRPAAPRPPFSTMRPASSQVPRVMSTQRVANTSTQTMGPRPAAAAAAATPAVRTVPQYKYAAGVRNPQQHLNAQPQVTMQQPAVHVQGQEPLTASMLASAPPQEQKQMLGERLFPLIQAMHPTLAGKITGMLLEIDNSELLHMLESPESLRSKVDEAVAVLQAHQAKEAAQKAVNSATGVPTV

Cc1cc2c(Nc3ccc(O)cc3)ncnc2s1
IC50 [1]: 5.5 µM (active)

O=C(O)/C=C/C(=O)Nc1ccc(C2(c3ccc(NC(=O)/C=C/C(=O)O)cc3)c3ccccc3-c3ccccc32)cc1
AC50 [2]: 13.3 µM (active)
EC50 [3]: 2.88 µM (active)
IC50 [4]: 18.1 µM (active)

CCN(CC)c1ccc(NC(=O)c2cccnc2)cc1
IC50 [1]: 13.5 µM (active)
AC50 [5]: 0.327 µM (active)

O=C(NCC(c1ccco1)N1CCc2ccccc21)c1ccccc1 (stereo unspecified)
AC50 [5]: 1.21 µM (active)

Cc1cc(C)cc(OC(=O)CCN2C(=O)c3ccccc3C2=O)c1
IC50 [6]: > 50 µM (active)

O=C(CCCn1c(=S)[nH]c2ccsc2c1=O)NCCc1ccccc1
IC50 [7]: > 20 µM (inactive)

Cc1ccc(C(C2C(=O)CC(C)(C)CC2=O)C2C(=O)CC(C)(C)CC2=O)s1
IC50 [4]: 46.4 µM (active)

O[C@@H]1CN(Cc2ccc(-n3cccn3)cc2)CC[C@H]1N1CCN(c2ccccc2F)CC1
AC50 [8]: 2.13 µM (active)
AC50 [9]: 68 µM (active)
AC50 [10]: 2.39 µM (active)

COc1cc(C(=O)Nc2ccc(O)cc2)ccc1OC(C)=O
IC50 [1]: 6.12 µM (active)

CCc1cc(SC#N)cc(C)c1NC(=O)CCl
IC50 [1]: > 100 µM (active)
AC50 [11]: 5.76 µM (active)
IC50 [12]: > 66 µM (inactive)
IC50 [13]: > 66 µM (inactive)

C=CCn1c(SCc2ccc(Cl)cc2)nc2cc(C(=O)N3CCC(C(N)=O)CC3)ccc2c1=O
IC50 [7]: > 20 µM (inactive)

Clc1ccc2nc(N3CCCCC3)[nH]c2c1
AC50 [5]: 4.04 µM (active)

O=C(NCC(c1cccnc1)N1CCN(c2ccc(F)cc2)CC1)c1ccco1 (stereo unspecified)
EC50 [14]: 0.46 µM (active)
EC50 [15]: > 60 µM (inconclusive)
AC50 [5]: 4.66 µM (active)

COC(=O)c1sc(N2C(=O)C(O)=C(C(=O)c3ccc(C)o3)C2c2ccc([N+](=O)[O-])cc2)nc1C (stereo unspecified)
EC50 [16]: 4.55 µM (active)
EC50 [17]: > 150 µM (not active)
EC50 [18]: 6.86 µM (active)
IC50 [4]: 38.5 µM (active)

Cn1c(NN)nc2sc3c(c2c1=O)CCC3
EC50 [19]: > 150 µM (inactive)

COc1ccc(C(=O)NN=C(C)/C=C(\O)c2ccccc2)cc1
IC50 [6]: > 50 µM (active)

CC1CN(S(=O)(=O)c2cccc(C(=O)N(Cc3nnc(-c4ccccc4Cl)o3)C3CC3)c2)CC(C)O1 (stereo unspecified)
IC50 [7]: > 20 µM (inactive)

O=C(NCc1ccccn1)c1ccc2c(c1)N(Cc1ccccc1)CCS2
AC50 [5]: 0.511 µM (active)

COc1cc(/C=C2\NC(=S)N(C)C2=O)ccc1O
IC50 [1]: 3.22 µM (active)

COc1ccc(/C=C2\C(=O)ON=C2c2ccccc2)cc1OC
IC50 [4]: 95.4 µM (active)

CC(=O)Nc1ccc(Nc2nc3ccccc3nc2NS(=O)(=O)c2ccccc2)cc1
AC50 [5]: 0.13 µM (active)

CC(=O)Nc1ccc(S(=O)(=O)Nc2ccc(Nc3ccccc3)cc2)cc1
AC50 [5]: 0.268 µM (active)
IC50 [20]: 70.1 µM (active)

O=C(Nc1ccccc1N1CCCC1)c1ccc(N2CCCC2=O)cc1
AC50 [5]: 1.55 µM (active)

C=C(C)[C@@H]1C2=CC(C(=O)OC)=C(C[C@H](C(=C)C)[C@H]3O[C@H]3C3=C[C@H]1OC3=O)O2
AC50 [8]: 8.16 µM (active)
AC50 [9]: 13.3 µM (active)
AC50 [10]: 5.23 µM (active)

COc1ccc([Si](C)(C)[C@H]2[C@H](CCO)O[C@@]3(C(=O)N(Cc4cccc(N5CCOC5=O)c4)c4ccccc43)[C@@H]2C)cc1
AC50 [21]: 17.3 µM (active)

Cc1nnc(N/N=C/c2ccc(Br)cc2)n1N
IC50 [6]: 2.75 µM (active)

COc1cc(/C=N/N(C)C)ccc1OC(=O)c1cccs1
IC50 [6]: 24.2 µM (active)

O=C(CN1CCOCC1)N/N=C/c1ccc(-c2ccc(Br)cc2)o1
IC50 [6]: > 50 µM (active)

Cc1ccc(S(=O)(=O)Nc2nc(C)cc(N/N=C/c3ccc(O)cc3)n2)cc1
IC50 [1]: 10.6 µM (active)

CCCc1nc2[nH]c(C)c(NS(=O)(=O)c3ccc(C4CCCCC4)cc3)c(=O)n2n1
IC50 [4]: 61.1 µM (active)
